Laboratory results from US12492181B2, “Gem-disubstituted piperidine melanocortin subtype-2 receptor (MC2R) antagonists and uses thereof” (Crinetics Pharmaceuticals, Inc., priority 2019, dated 2025).

Biological target: T1, hMC2 receptor (crude hMC2R membranes from CRE-bla-CHO-K1 cells stably expressing hMC2 receptor and hMRAP accessory protein) (Homo sapiens, UniProt Q01718)
T1 construct: crude membrane fractions
Test: hMC2 membrane binding assay ([125I]ACTH (1-39) Tyr23, SPA)
Conditions: displacement of 0.2 nM [125I]ACTH (1-39) Tyr23 from hMC2R membranes, 1.5 hours at room temperature; read-out: MC2R binding potency
Procedure, shortened: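 Ki values come from non-linear regression of SPA scintillation counts, with compounds displacing [125I]ACTH(1-39) Tyr23. Membranes come from CRE-bla-CHO-K1 cells stably expressing hMC2 receptor together with hMRAP. They are preincubated with WGA-coated PVT SPA beads in 50 mM HEPES pH 7.4 with 0.20% BSA, Mg2+, Ca2+ and protease inhibitors.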

T1 sequence (Q01718 whole entry): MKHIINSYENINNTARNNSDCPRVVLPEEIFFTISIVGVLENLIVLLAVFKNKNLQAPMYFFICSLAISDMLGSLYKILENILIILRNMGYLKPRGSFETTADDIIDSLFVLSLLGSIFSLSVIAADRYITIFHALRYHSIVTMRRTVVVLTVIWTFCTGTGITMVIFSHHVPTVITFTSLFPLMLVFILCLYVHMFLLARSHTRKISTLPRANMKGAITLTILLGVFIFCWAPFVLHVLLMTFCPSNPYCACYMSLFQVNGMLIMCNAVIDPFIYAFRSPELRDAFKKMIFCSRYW
T1 sequence (Q8TCY5 whole entry partner): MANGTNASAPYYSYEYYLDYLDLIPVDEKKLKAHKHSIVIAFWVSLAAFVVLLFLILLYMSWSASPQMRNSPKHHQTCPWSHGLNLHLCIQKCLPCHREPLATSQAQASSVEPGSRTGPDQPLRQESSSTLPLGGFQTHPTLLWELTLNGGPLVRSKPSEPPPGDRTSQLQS

SMILES	Ki
CN1CC[C@@H](NC(=O)C2(c3ccc(-c4cc(F)cc(F)c4)nc3)CCN(c3ccc(C(F)(F)F)cc3C#N)CC2)C1 [Compound 1-65, 1-[2-cyano-4-(trifluoromethyl)phenyl]-4-[6-(3,5-difluorophenyl)pyridin-3-yl]-N-[(3R)-1-methylpyrrolidin-3-yl]piperidine-4-carboxamide]	10 to 100 nM
CN1CC[C@@H](NC(=O)C2(c3ccc(-c4cccc5c4OC(F)(F)O5)nc3)CCN(c3ccc(C(F)(F)F)cc3C#N)CC2)C1 [Compound 1-67, 1-[2-cyano-4-(trifluoromethyl)phenyl]-4-[6-(2,2-difluoro-2H-1,3-benzodioxol-4-yl)pyridin-3-yl]-N-[(3R)-1-methylpyrrolidin-3-yl]piperidine-4-carboxamide]	10 to 100 nM
CC(C)CCn1nccc1-c1ccc(C2(C(=O)N[C@@H]3CCN(C)C3)CCN(c3ccc(C(F)(F)F)cc3C#N)CC2)cn1 [Compound 1-70, 1-[2-cyano-4-(trifluoromethyl)phenyl]-4-{6-[1-(3-methylbutyl)-1H-pyrazol-5-yl]pyridin-3-yl}-N-[(3R)-1-methylpyrrolidin-3-yl]piperidine-4-carboxamide]	10 to 100 nM
CN1CC[C@@H](NC(=O)C2(c3ccc(-c4ccccc4C(F)(F)F)nc3)CCN(c3ccc(C(F)(F)F)cc3C#N)CC2)C1 [Compound 1-77, 1-[2-cyano-4-(trifluoromethyl)phenyl]-N-[(3R)-1-methylpyrrolidin-3-yl]-4-{6-[2-(trifluoromethyl)phenyl]pyridin-3-yl}piperidine-4-carboxamide]	< 10 nM
CN1CC[C@@H](NC(=O)C2(c3ccc(-c4ccccc4C#N)nc3)CCN(c3ccc(C(F)(F)F)cc3C#N)CC2)C1 [Compound 1-78, 1-[2-cyano-4-(trifluoromethyl)phenyl]-4-[6-(2-cyanophenyl)pyridin-3-yl]-N-[(3R)-1-methylpyrrolidin-3-yl]piperidine-4-carboxamide]	< 10 nM
COCc1ccccc1-c1ccc(C2(C(=O)N[C@@H]3CCN(C)C3)CCN(c3ccc(C(F)(F)F)cc3C#N)CC2)cn1 [Compound 1-79, 1-[2-cyano-4-(trifluoromethyl)phenyl]-4-{6-[2-(methoxymethyl)phenyl]pyridin-3-yl}-N-[(3R)-1-methylpyrrolidin-3-yl]piperidine-4-carboxamide]	< 10 nM
COc1ccsc1-c1ccc(C2(C(=O)N[C@@H]3CCN(C)C3)CCN(c3ccc(C(F)(F)F)cc3C#N)CC2)cn1 [Compound 1-80, 1-[2-cyano-4-(trifluoromethyl)phenyl]-4-[6-(3-methoxythiophen-2-yl)pyridin-3-yl]-N-[(3R)-1-methylpyrrolidin-3-yl]piperidine-4-carboxamide]	< 10 nM
COc1ccc(F)cc1-c1ccc(C2(C(=O)N[C@@H]3CCN(C)C3)CCN(c3ccc(C(F)(F)F)cc3C#N)CC2)cn1 [Compound 1-81, 1-[2-cyano-4-(trifluoromethyl)phenyl]-4-[6-(5-fluoro-2-methoxyphenyl)pyridin-3-yl]-N-[(3R)-1-methylpyrrolidin-3-yl]piperidine-4-carboxamide]	< 10 nM
COc1c(F)cccc1-c1ccc(C2(C(=O)N[C@@H]3CCN(C)C3)CCN(c3ccc(C(F)(F)F)cc3C#N)CC2)cn1 [Compound 1-82, 1-[2-cyano-4-(trifluoromethyl)phenyl]-4-[6-(3-fluoro-2-methoxyphenyl)pyridin-3-yl]-N-[(3R)-1-methylpyrrolidin-3-yl]piperidine-4-carboxamide]	< 10 nM
COc1sccc1-c1ccc(C2(C(=O)N[C@@H]3CCN(C)C3)CCN(c3ccc(C(F)(F)F)cc3C#N)CC2)cn1 [Compound 1-83, 1-[2-cyano-4-(trifluoromethyl)phenyl]-4-[6-(2-methoxythiophen-3-yl)pyridin-3-yl]-N-[(3R)-1-methylpyrrolidin-3-yl]piperidine-4-carboxamide]	< 10 nM
CN1CC[C@@H](NC(=O)C2(c3ccc(-c4ccccc4C(C)(F)F)nc3)CCN(c3ccc(C(F)(F)F)cc3C#N)CC2)C1 [Compound 1-84, 1-[2-cyano-4-(trifluoromethyl)phenyl]-4-{6-[2-(1,1-difluoroethyl)phenyl]pyridin-3-yl}-N-[(3R)-1-methylpyrrolidin-3-yl]piperidine-4-carboxamide]	10 to 100 nM
CN1CC[C@@H](NC(=O)C2(c3ccc(-c4cccnc4OC(F)F)nc3)CCN(c3ccc(C(F)(F)F)cc3C#N)CC2)C1 [Compound 1-85, 1-[2-cyano-4-(trifluoromethyl)phenyl]-4-[2′-(difluoromethoxy)-[2,3′-bipyridin]-5-yl]-N-[(3R)-1-methylpyrrolidin-3-yl]piperidine-4-carboxamide]	< 10 nM
COc1ncc(F)cc1-c1ccc(C2(C(=O)N[C@@H]3CCN(C)C3)CCN(c3ccc(C(F)(F)F)cc3C#N)CC2)cn1 [Compound 1-86, 1-[2-cyano-4-(trifluoromethyl)phenyl]-4-{5′-fluoro-2′-methoxy-[2,3′-bipyridin]-5-yl}-N-[(3R)-1-methylpyrrolidin-3-yl]piperidine-4-carboxamide]	< 10 nM
COc1c(F)cc(F)cc1-c1ccc(C2(C(=O)N[C@@H]3CCN(C)C3)CCN(c3ccc(C(F)(F)F)cc3C#N)CC2)cn1 [Compound 1-87, 1-[2-cyano-4-(trifluoromethyl)phenyl]-4-[6-(3,5-difluoro-2-methoxyphenyl)pyridin-3-yl]-N-[(3R)-1-methylpyrrolidin-3-yl]piperidine-4-carboxamide]	< 10 nM
CN1CC[C@@H](NC(=O)C2(c3ccc(-c4cccn4C)nc3)CCN(c3ccc(C(F)(F)F)cc3C#N)CC2)C1 [Compound 1-88, 1-[2-cyano-4-(trifluoromethyl)phenyl]-4-[6-(1-methyl-1H-pyrrol-2-yl)pyridin-3-yl]-N-[(3R)-1-methylpyrrolidin-3-yl]piperidine-4-carboxamide]	< 10 nM
CN1CC[C@@H](NC(=O)C2(c3ccc(-c4ccccc4OC4CC4)nc3)CCN(c3ccc(C(F)(F)F)cc3C#N)CC2)C1 [Compound 1-89, 1-[2-cyano-4-(trifluoromethyl)phenyl]-4-[6-(2-cyclopropoxyphenyl)pyridin-3-yl]-N-[(3R)-1-methylpyrrolidin-3-yl]piperidine-4-carboxamide]	< 10 nM
CCOc1ccccc1-c1ccc(C2(C(=O)N[C@H]3CCN(C)C3)CCN(c3ccc(Cl)cc3C#N)CC2)cn1 [Compound 1-90, 1-(4-chloro-2-cyanophenyl)-4-[6-(2-ethoxyphenyl)pyridin-3-yl]-N-[(3S)-1-methylpyrrolidin-3-yl]piperidine-4-carboxamide]	< 10 nM

Next, values leading:

Ki	SMILES
< 10 nM	Cc1ccccc1-c1ccc(C2(C(=O)N[C@@H]3CCN(C)C3)CCN(c3ccc(C(F)(F)F)cc3C#N)CC2)cn1 [Compound 1-66, 1-[2-cyano-4-(trifluoromethyl)phenyl]-4-[6-(2-methylphenyl)pyridin-3-yl]-N-[(3R)-1-methylpyrrolidin-3-yl]piperidine-4-carboxamide]
< 10 nM	CN1CC[C@@H](NC(=O)C2(c3ccc(-c4cc(F)ccc4F)nc3)CCN(c3ccc(C(F)(F)F)cc3C#N)CC2)C1 [Compound 1-68, 1-[2-cyano-4-(trifluoromethyl)phenyl]-4-[6-(2,5-difluorophenyl)pyridin-3-yl]-N-[(3R)-1-methylpyrrolidin-3-yl]piperidine-4-carboxamide]
< 10 nM	CCOc1ccc(F)cc1-c1ccc(C2(C(=O)N[C@@H]3CCN(C)C3)CCN(c3ccc(C(F)(F)F)cc3C#N)CC2)cn1 [Compound 1-69, 1-[2-cyano-4-(trifluoromethyl)phenyl]-4-[6-(2-ethoxy-5-fluorophenyl)pyridin-3-yl]-N-[(3R)-1-methylpyrrolidin-3-yl]piperidine-4-carboxamide]
< 10 nM	CN1CC[C@@H](NC(=O)C2(c3ccc(-c4ccccc4OC(F)(F)F)nc3)CCN(c3ccc(C(F)(F)F)cc3C#N)CC2)C1 [Compound 1-71, 1-[2-cyano-4-(trifluoromethyl)phenyl]-N-[(3R)-1-methylpyrrolidin-3-yl]-4-{6-[2-(trifluoromethoxy)phenyl]pyridin-3-yl}piperidine-4-carboxamide]
< 10 nM	CCOc1c(F)cccc1-c1ccc(C2(C(=O)N[C@@H]3CCN(C)C3)CCN(c3ccc(C(F)(F)F)cc3C#N)CC2)cn1 [Compound 1-72, 1-[2-cyano-4-(trifluoromethyl)phenyl]-4-[6-(2-ethoxy-3-fluorophenyl)pyridin-3-yl]-N-[(3R)-1-methylpyrrolidin-3-yl]piperidine-4-carboxamide]
< 10 nM	CN1CC[C@@H](NC(=O)C2(c3ccc(-c4cccc5cnn(C)c45)nc3)CCN(c3ccc(C(F)(F)F)cc3C#N)CC2)C1 [Compound 1-73, 1-[2-cyano-4-(trifluoromethyl)phenyl]-4-[6-(1-methyl-1H-indazol-7-yl)pyridin-3-yl]-N-[(3R)-1-methylpyrrolidin-3-yl]piperidine-4-carboxamide]
< 10 nM	CN1CC[C@@H](NC(=O)C2(c3ccc(-c4ccccc4F)nc3)CCN(c3ccc(C(F)(F)F)cc3C#N)CC2)C1 [Compound 1-74, 1-[2-cyano-4-(trifluoromethyl)phenyl]-4-[6-(2-fluorophenyl)pyridin-3-yl]-N-[(3R)-1-methylpyrrolidin-3-yl]piperidine-4-carboxamide]
< 10 nM	CCOc1ncccc1-c1ccc(C2(C(=O)N[C@@H]3CCN(C)C3)CCN(c3ccc(C(F)(F)F)cc3C#N)CC2)cc1F [Compound 1-75, 1-[2-cyano-4-(trifluoromethyl)phenyl]-4-[4-(2-ethoxypyridin-3-yl)-3-fluorophenyl]-N-[(3R)-1-methylpyrrolidin-3-yl]piperidine-4-carboxamide]
< 10 nM	CCOc1ccccc1-c1ccc(C2(C(=O)NC3CN(C)C3)CCN(c3ccc(C(F)(F)F)cc3C#N)CC2)cn1 [Compound 1-76, 1-[2-cyano-4-(trifluoromethyl)phenyl]-4-[6-(2-ethoxyphenyl)pyridin-3-yl]-N-(1-methylazetidin-3-yl)piperidine-4-carboxamide]
